In PubChem BioAssay AID248 (DTP/NCI, 2004):
“And” between values parts separate entries of the source, which are not always exact repeats. Equal entries are not always repeated. Inconclusive results and toxic doses are left out. Cut-off read from the data, not from the text of the source: active = T/C of 150% or more; inactive = T/C below 125%. Square brackets hold non-standard residues; d marks the D form. Peptide text beside a SMILES is read from it. * marks the point of attachment. ξ: configuration not given here. Cbz = O=C(OCc1ccccc1)*; ξP = O=C(O)C1CCCN1

Tested on: L1210 leukemia ip in BDF1 mice, survival T/C
Experiment: NCI In Vivo Anticancer Drug Screen. Data for tumor model L1210 Leukemia (intraperitoneal) in B6D2F1 (BDF1) mice
Conditions: endpoint: mean survival time, higher = longer survival
Method in brief: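 In this screen, tumor-bearing mice given compound are compared to those given vehicle, and their survival values are reported as a treated-to-control quotient.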

[1] = dose: 100.0 mg/kg/injection, schedule: Q01DX001 (ip), vehicle: saline
[2] = dose: 100.0 mg/kg/injection, schedule: Q04DX003 (ip), vehicle: saline with Tween-80
[3] = dose: 200.0 mg/kg/injection, schedule: Q04DX003 (ip), vehicle: saline with Tween-80
[4] = dose: 400.0 mg/kg/injection, schedule: Q04DX003 (ip), vehicle: saline with Tween-80
[5] = dose: 100.0 mg/kg/injection, schedule: Q04DX003 (ip), vehicle: saline
[6] = dose: 200.0 mg/kg/injection, schedule: Q04DX003 (ip), vehicle: saline
[7] = dose: 400.0 mg/kg/injection, schedule: Q04DX003 (ip), vehicle: saline
[8] = dose: 50.0 mg/kg/injection, schedule: Q01DX009 (ip), vehicle: Klucel (hydroxypropylcellulose) (HPC)
[9] = dose: 100.0 mg/kg/injection, schedule: Q01DX009 (ip), vehicle: saline with Tween-80
[10] = dose: 200.0 mg/kg/injection, schedule: Q01DX009 (ip), vehicle: saline with Tween-80
[11] = dose: 100.0 mg/kg/injection, schedule: Q04DX003 (ip), vehicle: Klucel (hydroxypropylcellulose) (HPC)
[12] = dose: 200.0 mg/kg/injection, schedule: Q04DX003 (ip), vehicle: Klucel (hydroxypropylcellulose) (HPC)
[13] = dose: 50.0 mg/kg/injection, schedule: Q01DX009 (ip), vehicle: saline with Tween-80
[14] = dose: 400.0 mg/kg/injection, schedule: Q04DX003 (ip), vehicle: Klucel (hydroxypropylcellulose) (HPC)
[15] = dose: 100.0 mg/kg/injection, schedule: Q01DX001 (ip), vehicle: carboxymethylcellulose (CMC)
[16] = dose: 200.0 mg/kg/injection, schedule: Q01DX001 (ip), vehicle: carboxymethylcellulose (CMC)
[17] = dose: 400.0 mg/kg/injection, schedule: Q01DX001 (ip), vehicle: carboxymethylcellulose (CMC)
[18] = dose: 100.0 mg/kg/injection, schedule: Q04DX002 (ip), vehicle: Klucel (hydroxypropylcellulose) (HPC)
[19] = dose: 200.0 mg/kg/injection, schedule: Q04DX002 (ip), vehicle: Klucel (hydroxypropylcellulose) (HPC)

Measured: T/C

N#CC(OC(=O)c1ccccc1)c1ccc([N+](=O)[O-])cc1 (configuration not stated)
inactive: [1] 102 % of control

CSC(=S)NNC(=O)c1cccc([N+](=O)[O-])c1
inactive: dose: 6.25 mg/kg/injection, schedule: Q04DX003 (ip), vehicle: saline sonified 95 % of control | dose: 12.5 mg/kg/injection, schedule: Q04DX003 (ip), vehicle: saline sonified 100 % of control | dose: 25.0 mg/kg/injection, schedule: Q04DX003 (ip), vehicle: saline sonified 101 % of control

CC(=O)c1ccc(N=Nc2ccc(N(C)C)cc2)cc1
inactive: dose: 100.0 mg/kg/injection, schedule: Q01DX009 (ip), vehicle: carboxymethylcellulose (CMC) 100 % of control and 110 % of control | dose: 100.0 mg/kg/injection, schedule: Q04DX002 (ip), vehicle: carboxymethylcellulose (CMC) 100 % of control | dose: 100.0 mg/kg/injection, schedule: Q04DX003 (ip), vehicle: carboxymethylcellulose (CMC) 100 % of control | dose: 200.0 mg/kg/injection, schedule: Q01DX009 (ip), vehicle: carboxymethylcellulose (CMC) 98 % of control and 102 % of control | dose: 200.0 mg/kg/injection, schedule: Q04DX002 (ip), vehicle: carboxymethylcellulose (CMC) 93 % of control | dose: 200.0 mg/kg/injection, schedule: Q04DX003 (ip), vehicle: carboxymethylcellulose (CMC) 101 % of control | dose: 400.0 mg/kg/injection, schedule: Q01DX009 (ip), vehicle: carboxymethylcellulose (CMC) 95 % of control and 90 % of control | dose: 400.0 mg/kg/injection, schedule: Q04DX002 (ip), vehicle: carboxymethylcellulose (CMC) 88 % of control | dose: 400.0 mg/kg/injection, schedule: Q04DX003 (ip), vehicle: carboxymethylcellulose (CMC) 101 % of control

CCN(CC)C(=O)CS(=O)(=O)c1ccc(C)cc1
inactive: [2] 96 % of control | [3] 110 % of control | [4] 98 % of control

CC1(C)C2CCC(C2)C1C(=O)O (configuration not stated)
inactive: [2] 95 % of control | [3] 91 % of control | [4] 100 % of control

NC(CSS(=O)(=O)O)=NCCCc1c[nH]c2ccccc12
inactive: dose: 12.5 mg/kg/injection, schedule: Q04DX002 (ip), vehicle: Klucel (hydroxypropylcellulose) (HPC) 100 % of control | dose: 25.0 mg/kg/injection, schedule: Q04DX002 (ip), vehicle: Klucel (hydroxypropylcellulose) (HPC) 107 % of control | dose: 50.0 mg/kg/injection, schedule: Q04DX002 (ip), vehicle: Klucel (hydroxypropylcellulose) (HPC) 107 % of control

O=C1c2cc([N+](=O)[O-])ccc2-c2c(F)cc(F)cc21
inactive: [5] 104 % of control | [6] 89 % of control | [7] 91 % of control

CC(=O)Nc1ccc(C)c2ccccc12
inactive: dose: 50.0 mg/kg/injection, schedule: Q04DX003 (ip), vehicle: saline with Tween-80 116 % of control | [2] 100 % of control | [3] 100 % of control | [4] 96 % of control

CCOC(=O)C1CC=CCC1C(=O)OCC (configuration not stated)
inactive: [8] 105 % of control | dose: 75.0 mg/kg/injection, schedule: Q01DX009 (ip), vehicle: Klucel (hydroxypropylcellulose) (HPC) 108 % of control | dose: 150.0 mg/kg/injection, schedule: Q01DX009 (ip), vehicle: Klucel (hydroxypropylcellulose) (HPC) 112 % of control

Cc1cn(-c2ccccc2)c(C)c(C(=O)O)c1=O
inactive: dose: 100.0 mg/kg/injection, schedule: Q01DX001 (ip), vehicle: other 101 % of control | dose: 200.0 mg/kg/injection, schedule: Q01DX001 (ip), vehicle: other 102 % of control | dose: 400.0 mg/kg/injection, schedule: Q01DX001 (ip), vehicle: other 91 % of control

CCCCn1c(N)cc(=O)[nH]c1=S
inactive: dose: 50.0 mg/kg/injection, schedule: Q01DX001 (ip), vehicle: saline 100 % of control | [1] 93 % of control | dose: 200.0 mg/kg/injection, schedule: Q01DX001 (ip), vehicle: saline 106 % of control | dose: 400.0 mg/kg/injection, schedule: Q01DX001 (ip), vehicle: saline 100 % of control

COc1ccc(OC(=O)Nc2ccccc2C(F)(F)F)cc1
inactive: [9] 98 % of control | [10] 107 % of control | dose: 400.0 mg/kg/injection, schedule: Q01DX009 (ip), vehicle: saline with Tween-80 102 % of control

CN(C)C(=O)Sc1cccc([N+](=O)[O-])c1
inactive: [2] 109 % of control | [3] 111 % of control | [4] 103 % of control

O=C(NCC(=O)N1CCCC1C(=O)O)OCc1ccccc1 (stereo not drawn) (Cbz-Gly-[ξP]-OH)
inactive: [8] 93 % of control | dose: 50.0 mg/kg/injection, schedule: Q04DX003 (ip), vehicle: Klucel (hydroxypropylcellulose) (HPC) 96 % of control | dose: 100.0 mg/kg/injection, schedule: Q01DX009 (ip), vehicle: Klucel (hydroxypropylcellulose) (HPC) 97 % of control | [11] 91 % of control | dose: 200.0 mg/kg/injection, schedule: Q01DX009 (ip), vehicle: Klucel (hydroxypropylcellulose) (HPC) 93 % of control | [12] 93 % of control

C=CCN(CC=C)c1nc(-c2ccccc2)nc(-c2ccccc2)n1
inactive: dose: 25.6 mg/kg/injection, schedule: Q04DX002 (ip), vehicle: saline with Tween-80 93 % of control | dose: 64.0 mg/kg/injection, schedule: Q04DX002 (ip), vehicle: saline with Tween-80 93 % of control | [2] 92 % of control | dose: 160.0 mg/kg/injection, schedule: Q04DX002 (ip), vehicle: saline with Tween-80 93 % of control | [3] 92 % of control | dose: 400.0 mg/kg/injection, schedule: Q04DX002 (ip), vehicle: saline with Tween-80 89 % of control | [4] 92 % of control

CC/C(=C/c1cccc(OC)c1OC)[N+](=O)[O-]
inactive: dose: 12.5 mg/kg/injection, schedule: Q01DX009 (ip), vehicle: saline with Tween-80 105 % of control | dose: 25.0 mg/kg/injection, schedule: Q01DX009 (ip), vehicle: saline with Tween-80 98 % of control | [13] 96 % of control | [2] 107 % of control | [3] 90 % of control

O=C1c2ccccc2-c2cc(Cl)c(Cl)cc21
inactive: [11] 96 % of control | [12] 103 % of control | [14] 105 % of control

CC(=O)c1cc(O)c2ccccc2c1O
inactive: dose: 100.0 mg/kg/injection, schedule: Q01DX001 (ip), vehicle: water 98 % of control | dose: 200.0 mg/kg/injection, schedule: Q01DX001 (ip), vehicle: water 89 % of control

CCCCCCC1CC2CCCCC2CC1CCCC (configuration not stated)
inactive: [15] 96 % of control | [16] 100 % of control | [17] 94 % of control

CC(C)OC(=S)SC(C(=O)c1ccccc1)c1ccccc1 (configuration not stated)
inactive: [18] 91 % of control | [19] 91 % of control | dose: 400.0 mg/kg/injection, schedule: Q04DX002 (ip), vehicle: Klucel (hydroxypropylcellulose) (HPC) 91 % of control

COc1cc2c(cc1OC)C(c1ccc(O)c(O)c1)CNC2 (configuration not stated)
inactive: [13] 101 % of control | [9] 100 % of control | [10] 95 % of control

CC1C(=O)NN=C1c1ccc([N+](=O)[O-])cc1 (configuration not stated)
inactive: [15] 100 % of control | [16] 100 % of control | [17] 94 % of control

CC(=O)Nc1cc2c3ccccc3ccc2c2ccccc12
inactive: [15] 87 % of control

CC(C)(C)OC(=O)NC(Cc1cncn1Cc1ccccc1)C(=O)NC(Cc1c[nH]c2ccccc12)C(=O)OCc1ccccc1 (configuration not stated)
inactive: [5] 97 % of control | [6] 93 % of control | [7] 95 % of control

Nc1ccc(C(O)(C(F)(F)F)C(F)(F)F)c(C(=O)O)c1
inactive: dose: 100.0 mg/kg/injection, schedule: Q04DX003 (ip), vehicle: other 101 % of control | dose: 200.0 mg/kg/injection, schedule: Q04DX003 (ip), vehicle: other 101 % of control | dose: 400.0 mg/kg/injection, schedule: Q04DX003 (ip), vehicle: other 101 % of control

CCCC(C(=O)OCC)C(=O)c1ccccc1 (configuration not stated)
inactive: [11] 95 % of control | [12] 98 % of control | [14] 92 % of control

NNC(=O)CNc1ccc(F)c(F)c1
inactive: [18] 104 % of control | [19] 108 % of control
